Results from patent US20090018620A1, “METHOD FOR RESTORING AN E[…]” ([…], priority 2007, published 2009).
“Also recorded” adds a separate entry of the source.

What was measured:
LSt neurons [1] = assay: Muscimol injection into LSt neuron area at L4 immediately before intraspinal microstimulation, BS EMG recording (FIG. 3); assay type: in vivo, rat
Procedure: (§1) All procedures were in accordance with the European Communities Council Directives 86/609/EEC on the use of laboratory animals. Male adult sexually naïve Wistar rats (Janvier, Le Genest-St-Isle, France) of 275-325 grams, housed for at least 4 days in our animal facility before experimentation, were anesthetized with […] intraperitoneal urethane while body temperature was maintained at 37° C. with a homeothermic blanket. […] Custom-made bipolar steel wire electrodes (AS631, CoonerWire, CA, USA) were implanted into the exposed dorsal part of the right bulbospongiosus (BS) muscle. After suprapubic midline abdominal incision, a 1.1 mm diameter mineral oil-filled catheter was inserted into the lumen of the right seminal vesicle (SV) via its apex or the right vas deferens (VD) was cut and a 0.61 mm diameter catheter filled with isotonic salt solution inserted into the prostatic portion of the VD lumen. Then, the spine was exposed dorsally and fixed with a stereotaxic frame. Laminectomy was performed between vertebrae L1-T13 to expose […] spinal level and the dura was carefully removed. To improve intraspinal access, we incubated the spinal cord for 20 minutes with 3 units/μl collagenase type VII from Clostridium histolyticum (Sigma-Aldrich Chimie, St.Quentin Fallavier, France). To target T12 to L6 spinal levels in FIG. 2C, we performed 2-3 laminectomies on the same animal. Acute spinalization was performed through a complete spinal transection between T8 and T9 spinal levels one hour before microstimulation started. We performed bilateral sectioning of i) the hypogastric and pelvic nerves close to the major pelvic ganglion or iii) the dorsal nerves of the penis at the penile crus. A single experiment lasted 2 to 4 hours.
(§2) Monopolar spinal microstimulation was performed with a ‘Formvar’-coated nichrome wire of 50 μm diameter (AM-Systems Inc. WA, USA). Typically, the electrode was positioned on the dorsal surface at L4 spinal level, adjacent to the right of the dorsal spinal artery and lowered vertically with a hydraulic microdrive (Trent-Wells, Coulterville, Calif., USA) to ˜1600 μm depth in correspondence with the stereotaxic coordinates for laminae VII and X (S2), taking as electrode depth the read-out of the microdrive. A reference electrode was placed in the vicinity of the tail. Electrical stimuli were delivered using a pulse generator (model-2100, AM-Systems Inc. WA, USA). Biphasic rectangular current pulses of 0.5 ms duration applied in short trains of 60 to 100 pulses at 200 Hz for a total duration of 300 to 500 ms were applied. This stimulus was optimal without causing temporal overlap between stimulus and the SV/VD/BS muscle responses, according to preliminary experiments. […]

LSt neurons [2] = assay: Muscimol injection into LSt neuron area 3.4 s after LSt neuron microstimulation, during ongoing rhythmic BS EMG activity (FIG. 4); assay type: in vivo, rat
Procedure: as §1, §2

[3] = ~20 minutes after muscimol injection

NCc1cc(=O)[nH]o1 [muscimol]
BS EMG activity following microstimulation, of the control response (LSt neurons [1]; anesthetized rats, 50 μM muscimol injected at L4 near electrode tip, microstimulation immediately after, n=5, P<10^−5): 6±5%
BS EMG activity during the time of microstimulation (unrelated to the ejaculation response) in the presence of muscimol as compared to controls (LSt neurons [1]; anesthetized rats, n=5, P=0.07): 58±25%
Effect on BS EMG activity evoked by second identical microstimulation (example experiment) (LSt neurons [1]; ~200 nl of 50 μM muscimol in the vicinity of the electrode tip, immediately before microstimulation): abolished BS EMG activity
BS EMG response to third microstimulation (recovery) (LSt neurons [1]; [3]): partial response recovery
Time to full suppressive effect on BS EMG activity after muscimol injection (LSt neurons [2]; average of 5 animals, injection total duration 400 ms): ≤ 160 ± 120 ms
Rhythmic pattern of BS EMG activity, of the control response (LSt neurons [2]; muscimol applied 3.4 s after end of LSt neuron microstimulation, mean BS rEMG 0.3-15.3 s after injection, n=5, P<10^−5): 2±2%
Effect on ongoing BS EMG activity (example experiment) (LSt neurons [2]; ~200 nl of 50 μM muscimol injected 3.4 s after microstimulation, LSt neuron area adjacent to electrode tip): completely interrupted the BS EMG activity; also recorded: rapidly turned off BS EMG activity
BS EMG response to microstimulation after recovery period (LSt neurons [2]; [3]): partial response recovery
